Series [1] deals with HeLa. In words: Antiproliferative activity against human HeLa cells incubated for 48 hrs by MTT assay. The class given is functional, cell-based. For orientation: Tetrazolium dyes change colour on reduction, which living cells bring about.
The subject of series [2] is A549. In words: Antiproliferative activity against human A549 cells incubated for 48 hrs by MTT assay. It counts as functional, cell-based. The settings on record: A549, 48 h.
Series [3] deals with B16-F10. The experiment in a line: Antiproliferative activity against mouse B16F10 cells incubated for 48 hrs by MTT assay. The conditions noted are these: B16-F10, 48 h. It counts as functional, cell-based.
A further series deals with HEK293. In words: Cytotoxicity in HEK293 cells assessed as reduction in cel viability incubated for 48 hrs by MTT assay. The class given is cell-based. The settings on record: Homo sapiens, HEK293, 48 h.
The test system of series [4] is HeLa. The experiment in a line: Antiproliferative activity against human HeLa cells at 10 to 100 uM incubated for 48 hrs by MTT assay. It counts as functional, cell-based.
Series [5] has as its system A549. The experiment in a line: Antiproliferative activity against human A549 cells at 10 to 100 uM incubated for 48 hrs by MTT assay. The class given is functional, cell-based.
Series [6] deals with B16-F10. In words: Antiproliferative activity against mouse B16F10 cells at 10 to 100 uM incubated for 48 hrs by MTT assay. It counts as functional, cell-based.
A short description of series [7]: Selectivity index, ratio of IC50 for cytotoxicity in HEK293 cells assessed as reduction in cell viability incubated for 48 hrs by MTT assay to IC50 for antiproliferative activity against human HeLa cells incubated for 48 hrs by MTT assay. The class given is toxicity, cell-based. The conditions noted are these: read-out: Ratio IC50.
A short description of series [8]: Selectivity index, ratio of IC50 for cytotoxicity in HEK293 cells assessed as reduction in cell viability incubated for 48 hrs by MTT assay to IC50 for antiproliferative activity against human A549 cells incubated for 48 hrs by MTT assay. It counts as toxicity, cell-based. The settings on record: read-out: Ratio IC50.
Series [9] can be described thus: Selectivity index, ratio of IC50 for cytotoxicity in HEK293 cells assessed as reduction in cell viability incubated for 48 hrs by MTT assay to IC50 for antiproliferative activity against mouse B16F10 cells incubated for 48 hrs by MTT assay. The class given is toxicity, cell-based. The settings on record: read-out: Ratio IC50.
The test system of series [10] is B16-F10. The experiment in a line: Induction of apoptosis in mouse B16F10 cells assessed as early apoptosis cells level at 7 uM incubated for 48 hrs by Annexin V-FITC and PI staining based flow cytometry (reference value: 0.03 +/- 0.013%). The class given is functional. (In flow cytometry, cells or beads pass a laser one at a time.)
Series [11] has as its system B16-F10. In words: Induction of apoptosis in mouse B16F10 cells assessed as late apoptosis cells level at 7 uM incubated for 48 hrs by Annexin V-FITC and PI staining based flow cytometry (reference value: 0.02 +/- 0.21%). It counts as functional.
Another series has as its system MCF7. The experiment in a line: Antiproliferative activity against human MCF7 cells. The class given is functional, cell-based.

Active and inactive are the calls of the source. No cut-off for these calls is given here.

For `COc1ccc(-c2cn3cc(C4=CCN(S(=O)(=O)c5ccccc5)CC4)ccc3n2)cc1OC`, the IC50 in the series on HeLa [1] is 12.6 µM; in the series with A549 [2], 7.66 µM; in the series on B16-F10 [3], 13.2 µM; with HEK293, 65.6 µM. Further, the result with HeLa [4], in the series with A549 [5] and with B16-F10 [6] was Active. Also, the selectivity ratio at 48 h in series [7], in series [8] and in series [9] was 10 to 14 in each case.

With `COc1ccc(-c2cn3cc(C4=CCN(S(=O)(=O)C5CCCCC5)CC4)ccc3n2)cc1OC`, the IC50 with HeLa [1] came to 9.99 µM; in the series on A549 [2] it was 4.49 µM; in the series with B16-F10 [3], 11.1 µM; with HEK293, 75 µM. Also, the outcome in the series with HeLa [4], with A549 [5] and in the series on B16-F10 [6] was Active. Moreover, the selectivity ratio at 48 h in series [7], in series [8] and in [9] was 10 to 14 in each case.

Consider `Nc1ccccc1NC(=O)c1cnccn1`, for which the IC50 was 28.3 µM in the series on HeLa [1], 29.1 µM in the series with A549 [2] and 34.6 µM in the series with B16-F10 [3].

For `COc1ccc(-c2cn3cc(C4=CCN(C(=O)c5cccs5)CC4)ccc3n2)cc1OC`, the IC50 stood at 16 µM in the series on HeLa [1], 5.2 µM in the series on A549 [2], 19.5 µM in the series with B16-F10 [3] and 98.1 µM in the series on HEK293. In addition, the outcome in the series with HeLa [4], with A549 [5] and with B16-F10 [6] was Active. For the same molecule, the selectivity ratio at 48 h in [7], in [8] and in [9] was 10 to 14 throughout.

Take `COc1ccc(-c2cn3cc(C4=CCN(S(=O)(=O)CCc5ccccc5)CC4)ccc3n2)cc1OC`: the IC50 amounted to 8.98 µM with HeLa [1], 7.69 µM in the series on A549 [2], 8.08 µM in the series on B16-F10 [3] and 70.3 µM in the series with HEK293. For the same molecule, the result with HeLa [4], with A549 [5] and in the series with B16-F10 [6] was Active. Further, the selectivity ratio at 48 h in [7], in series [8] and in series [9] was 10 to 14 throughout.

Turning to `COc1ccc(-c2cn3cc(C4=CCN(C(=O)C(C)(C)C)CC4)ccc3n2)cc1OC`, the IC50 worked out at 5.48 µM in the series on HeLa [1], 4.34 µM in the series on A549 [2], 7.1 µM with B16-F10 [3] and 66.6 µM in the series on HEK293. Moreover, the result with HeLa [4], in the series with A549 [5] and in the series on B16-F10 [6] was Active. The values for the Activity with B16-F10 [10] and in the series with B16-F10 [11] were 25.4% and 57.3%, respectively. In addition, the selectivity ratio at 48 h in [7], in series [8] and in [9] was 10 to 14 throughout.

In the case of `COc1ccc(-c2cn3cc(C4=CCN(C(=O)C5CC5)CC4)ccc3n2)cc1OC`, the IC50 came out at 15.8 µM with HeLa [1], 9.14 µM in the series with A549 [2], 19.4 µM in the series with B16-F10 [3] and 77.5 µM in the series on HEK293. For the same molecule, the outcome in the series with HeLa [4], in the series on A549 [5] and with B16-F10 [6] was Active. The selectivity ratio at 48 h in [7], in series [8] and in series [9] was 10 to 14 in each case.

`COc1ccccc1[Se]c1c(-c2ccccc2)nc2ccc(F)cn12` came in with an IC50 with MCF7 of 12.5 µM.

For the molecule `COc1ccc(-c2cn3cc(C4=CCN(C(=O)c5ccc(F)cc5F)CC4)ccc3n2)cc1OC`, the result in the series on HeLa [4], with A549 [5] and in the series with B16-F10 [6] was Active.

On to `COc1ccc(-c2cn3cc(C4=CCN(C(=O)C5CCCCC5)CC4)ccc3n2)cc1OC`, for which the IC50 came to 8.06 µM in the series with HeLa [1], 7.31 µM in the series with A549 [2], 10.9 µM in the series with B16-F10 [3] and 72.1 µM in the series on HEK293. Moreover, the outcome in the series on HeLa [4], in the series on A549 [5] and with B16-F10 [6] was Active. Besides, the selectivity ratio at 48 h in series [7], in series [8] and in series [9] was 10 to 14 in each case.

In the case of `COc1ccc(-c2cn3cc(C4=CCN(S(=O)(=O)C5CCCC5)CC4)ccc3n2)cc1OC`, the IC50 with HeLa [1] was 6.47 µM; with A549 [2] it was 6.47 µM; in the series on B16-F10 [3], 7.69 µM; in the series with HEK293, 102 µM. The result with HeLa [4], in the series on A549 [5] and with B16-F10 [6] was Active. The Activity was 35.4% in the series on B16-F10 [10] and 55.6% with B16-F10 [11]. The selectivity ratio at 48 h in series [7], in series [8] and in [9] was 10 to 14 throughout.

For the molecule `COc1ccc(-c2cn3cc(C4=CCN(S(=O)(=O)c5ccc(Br)cc5)CC4)ccc3n2)cc1OC`, the result with HeLa [4], with A549 [5] and with B16-F10 [6] was Active.

Consider `CCS(=O)(=O)N1CC=C(c2ccc3nc(-c4ccc(OC)c(OC)c4)cn3c2)CC1`, for which the outcome in the series on HeLa [4], in the series with A549 [5] and with B16-F10 [6] was Active.

For the molecule `COc1ccc(-c2cn3cc(C4=CCN(C(=O)c5cccc(C(F)(F)F)c5)CC4)ccc3n2)cc1OC`, the IC50 was 4.86 µM in the series with HeLa [1], 3.69 µM in the series with A549 [2], 7.89 µM in the series on B16-F10 [3] and 68.4 µM in the series with HEK293. In addition, the outcome with HeLa [4], in the series on A549 [5] and in the series with B16-F10 [6] was Active. Besides, the selectivity ratio at 48 h in series [7], in series [8] and in [9] was 10 to 14 throughout.

Take `COc1ccc(-c2cn3cc(C4=CCN(C(=O)c5ccccc5C(F)(F)F)CC4)ccc3n2)cc1OC`: the IC50 was determined as 7.95 µM in the series on HeLa [1], 2.55 µM with A549 [2], 8.11 µM in the series with B16-F10 [3] and 82.9 µM in the series with HEK293. Also, the result with HeLa [4], with A549 [5] and in the series on B16-F10 [6] was Active. For the same molecule, the selectivity ratio at 48 h in [7], in series [8] and in series [9] was 10 to 14 throughout.

On to `COc1ccc(-c2cn3cc(C4=CCN(C(=O)N(C)C)CC4)ccc3n2)cc1OC`, for which the result in the series on HeLa [4], with A549 [5] and in the series with B16-F10 [6] was Active.

On to `COc1ccc(-c2cn3cc(C4=CCN(C(C)=O)CC4)ccc3n2)cc1OC`, for which the outcome in the series on HeLa [4], with A549 [5] and in the series with B16-F10 [6] was Active.

`COc1ccc(-c2cn3cc(C4=CCN(S(=O)(=O)C5CC5)CC4)ccc3n2)cc1OC`: the result in the series on HeLa [4], in the series on A549 [5] and in the series with B16-F10 [6] was Active.

With `CCCS(=O)(=O)N1CC=C(c2ccc3nc(-c4ccc(OC)c(OC)c4)cn3c2)CC1`, the result in the series on HeLa [4], with A549 [5] and in the series with B16-F10 [6] was Active.

On to `COc1ccc(-c2cn3cc(C4=CCN(C(=O)C(F)(F)F)CC4)ccc3n2)cc1OC`, for which the outcome with HeLa [4], in the series with A549 [5] and in the series on B16-F10 [6] was Active.

For `COc1ccc(-c2cn3cc(C4=CCN(C(=O)c5cocn5)CC4)ccc3n2)cc1OC`, the outcome in the series with HeLa [4], in the series on A549 [5] and in the series on B16-F10 [6] was Active.

As for `COc1ccc(S(=O)(=O)N2CC=C(c3ccc4nc(-c5ccc(OC)c(OC)c5)cn4c3)CC2)cc1`, the result in the series on HeLa [4], in the series on A549 [5] and in the series on B16-F10 [6] was Active.

As for `COc1ccc(-c2cn3cc(C4=CCN(S(=O)(=O)c5ccc([N+](=O)[O-])cc5)CC4)ccc3n2)cc1OC`, the result in the series with HeLa [4], in the series with A549 [5] and with B16-F10 [6] was Active.

Turning to `COc1ccc(-c2cn3cc(C4=CCN(S(=O)(=O)c5ccc(Br)s5)CC4)ccc3n2)cc1OC`, the outcome with HeLa [4], in the series with A549 [5] and in the series with B16-F10 [6] was Active.

Broadly, the IC50 is the midpoint of a concentration-inhibition curve.
